The source of these data is ChEMBL document CHEMBL1649268, “Comparative in vitro activity profile of oritavancin against recent gram-positive clinical isolates” (2009).

The test system of the assay is Enterococcus faecium. Briefly: Antimicrobial activity against vancomycin-susceptible Enterococcus faecium clinical isolates assessed as percent susceptible isolates by broth microdilution method. It counts as functional.

As for `C[C@H]1COc2c(N3CCN(C)CC3)c(F)cc3c(=O)c(C(=O)O)cn1c23.C[C@H]1COc2c(N3CCN(C)CC3)c(F)cc3c(=O)c(C(=O)O)cn1c23.O` [LEVOFLOXACIN], the Activity was 28.3%.
